This passage reports IC50 results from patent publication US8598202B2, “Aryl-hydroxyethylamino-pyrimidines and triazines as modulators of fatty acid amide hydrolase” (Janssen Pharmaceutica NV, priority 2008, dated 2013).

The pIC50 is the negative decadic logarithm of the IC50, by convention in mol/L.

One experiment has as its target T1, Rat FAAH-1 (Rattus norvegicus, UniProt P97612).
T1 sequence (P97612 1-579): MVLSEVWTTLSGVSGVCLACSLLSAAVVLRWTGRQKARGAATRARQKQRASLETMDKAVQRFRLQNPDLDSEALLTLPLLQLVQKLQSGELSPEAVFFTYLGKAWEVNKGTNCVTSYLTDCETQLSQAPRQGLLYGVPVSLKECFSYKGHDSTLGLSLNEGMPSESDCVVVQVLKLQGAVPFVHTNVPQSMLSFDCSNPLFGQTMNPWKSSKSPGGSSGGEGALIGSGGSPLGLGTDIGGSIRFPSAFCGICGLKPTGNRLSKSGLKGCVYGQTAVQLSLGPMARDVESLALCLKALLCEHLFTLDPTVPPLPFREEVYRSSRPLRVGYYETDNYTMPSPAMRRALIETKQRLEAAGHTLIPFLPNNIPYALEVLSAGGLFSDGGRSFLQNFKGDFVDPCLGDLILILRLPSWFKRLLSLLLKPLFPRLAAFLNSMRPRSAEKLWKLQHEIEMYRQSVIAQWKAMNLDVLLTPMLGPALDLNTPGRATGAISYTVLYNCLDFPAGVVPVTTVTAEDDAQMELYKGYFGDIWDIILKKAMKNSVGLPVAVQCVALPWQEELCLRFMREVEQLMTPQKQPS
In words: Assay Method 2: rat FAAH-1 assay, 3H-anandamide hydrolysis in homogenate of SK-N-MC cells transfected with rat FAAH.

A further experiment concerns the target T2, FAAH (Homo sapiens, UniProt O00519).
T2 sequence (O00519 1-579): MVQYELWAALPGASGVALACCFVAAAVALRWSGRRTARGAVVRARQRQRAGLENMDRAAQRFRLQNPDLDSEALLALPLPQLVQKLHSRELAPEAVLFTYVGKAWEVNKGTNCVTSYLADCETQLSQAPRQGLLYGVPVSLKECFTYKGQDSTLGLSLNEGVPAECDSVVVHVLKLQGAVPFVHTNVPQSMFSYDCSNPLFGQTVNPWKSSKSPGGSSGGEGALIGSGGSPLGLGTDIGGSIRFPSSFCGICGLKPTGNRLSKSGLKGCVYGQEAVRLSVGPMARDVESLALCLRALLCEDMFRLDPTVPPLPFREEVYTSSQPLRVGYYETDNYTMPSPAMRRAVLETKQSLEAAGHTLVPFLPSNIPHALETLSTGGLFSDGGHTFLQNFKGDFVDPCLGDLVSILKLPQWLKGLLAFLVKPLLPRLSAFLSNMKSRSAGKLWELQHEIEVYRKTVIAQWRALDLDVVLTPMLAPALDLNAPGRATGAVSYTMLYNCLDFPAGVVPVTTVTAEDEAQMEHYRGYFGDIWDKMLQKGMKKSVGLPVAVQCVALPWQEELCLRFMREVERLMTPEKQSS
In words: Assay Method 1: FAAH assay, 3H-anandamide hydrolysis in homogenate of T84 cells or SK-N-MC cells transfected with human FAAH.

Each structure is given as a SMILES string. pIC50: −log10 of the molar value. Counter-ions that a name gives are not always drawn. Like-named read-outs stand apart in the source and are kept apart here.

Consider `O[C@@H](CNc1cc(-c2cc3ccc(C(F)(F)F)cc3s2)ncn1)c1ccccc1` [Example 186, (1R)-1-Phenyl-2-({6-[6-(trifluoromethyl)-1-benzothiophen-2-yl]pyrimidin-4-yl}amino)ethanol trifluoroacetic acid salt], for which the pIC50 is below 5.00 against Rat FAAH-1 and 5.15 on FAAH.

On to `OC(CNc1cc(-c2cccs2)ncn1)c1ccccc1` (stereo not shown) [Example 244, 1-Phenyl-2-(6-thiophen-2-yl-pyrimidin-4-ylamino)-ethanol], for which the pIC50 at Rat FAAH-1 and against FAAH was below 5.00 in each case.

As to `CN(C)CCNc1nc(NC[C@H](O)c2ccccc2)cc(-c2ccc(C(F)(F)F)c(Cl)c2)n1` [Example 158, (1R)-2-[(6-[3-Chloro-4-(trifluoromethyl)phenyl]-2-{[2-(dimethylamino)ethyl]amino}pyrimidin-4-yl)amino]-1-phenylethanol trifluoroacetic acid salt], the results for the pIC50 at Rat FAAH-1 and on FAAH were 6.96 and 5.46, respectively.

Consider `O[C@@H](CNc1cc(-c2ccc(C(F)(F)F)c(F)c2)ncn1)c1ccc(F)cc1` [Example 173, (1R)-1-(4-Fluorophenyl)-2-({6-[3-fluoro-4-(trifluoromethyl)phenyl]pyrimidin-4-yl}amino)ethanol], for which the results for the pIC50 on Rat FAAH-1 and against FAAH were 7.96 and 8.70, respectively.

Take `O[C@@H](CNc1cc(-c2ccc3cc[nH]c3c2)ncn1)c1ccccc1` [Example 53, (1R)-2-{[6-(1H-Indol-6-yl)pyrimidin-4-yl]amino}-1-phenylethanol trifluoroacetic acid salt]: the pIC50 is below 5.00 against Rat FAAH-1 and 6.12 on FAAH.

As to `OC(CNc1cc(-c2ccc(OC(F)(F)F)cc2)ncn1)c1ccc(Cl)c(Cl)c1` (stereo not shown) [Example 114, 1-(3,4-Dichlorophenyl)-2-[(6-{4-[(trifluoromethyl)oxy]phenyl}-pyrimidin-4-yl)amino]ethanol], the pIC50 on Rat FAAH-1 is 7.37; against FAAH, 7.34.

Consider `OC(CNc1cc(-c2ccc(OC(F)(F)F)cc2)ncn1)c1ccc2c(c1)OCO2` (stereo not shown) [Example 127, 1-(1,3-Benzodioxol-5-yl)-2-[(6-{4-[(trifluoromethyl)oxy]phenyl}-pyrimidin-4-yl)amino]ethanol], for which the results for the negative-log IC50 (pIC50) on Rat FAAH-1 and against FAAH were 6.95 and 6.91, respectively.

Turning to `OC(CNc1cc(-c2ccc(C(F)(F)F)c(Cl)c2)ncn1)c1ccc(F)cc1` (stereo not shown) [Example 190, 2-({6-[3-Chloro-4-(trifluoromethyl)phenyl]pyrimidin-4-yl}amino)-1-(4-fluorophenyl)ethanol], the pIC50 is 7.92 against Rat FAAH-1 and 8.15 against FAAH.

On to `O[C@@H](CNc1cc(-c2cccc(C(F)(F)F)c2)ncn1)c1ccccc1` [Example 105, (1R)-1-Phenyl-2-({6-[3-(trifluoromethyl)phenyl]pyrimidin-4-yl}amino)ethanol], for which the pIC50 was 6.00 at Rat FAAH-1 and 6.72 at FAAH.

Take `C[C@@H]([C@H](O)c1ccccc1)N(C)c1cc(-c2ccc(OC(F)(F)F)cc2)ncn1` [Example 121, (1R,2S)-2-[Methyl(6-{4-[(trifluoromethyl)oxy]phenyl}pyrimidin-4-yl)amino]-1-phenylpropan-1-ol]: the pIC50 against Rat FAAH-1 was 5.52; on FAAH, 6.24.

Consider `OCc1ccc(-c2cc(NC[C@H](O)c3ccccc3)ncn2)cc1` [Example 21, (1R)-2-([6-[4-(Hydroxymethyl)phenyl]pyrimidin-4-yl]amino)-1-Phenylethanol], for which the pIC50 is 5.82 against Rat FAAH-1 and 6.47 at FAAH.

With `CS(=O)(=O)c1ccc(-c2cc(NC[C@H](O)c3ccccc3)ncn2)cc1` [Example 66, (1R)-2-({6-[4-(Methylsulfonyl)phenyl]pyrimidin-4-yl}amino)-1-phenylethanol], the pIC50 on Rat FAAH-1 was 6.85; on FAAH, 7.14.

Consider `OC(CNc1cc(-c2cc3ccccc3s2)ncn1)c1ccccc1` (stereo not shown) [Example 227, 2-(6-Benzo[b]thiophen-2-yl-pyrimidin-4-ylamino)-1-phenyl-ethanol], for which the results for the pIC50 at Rat FAAH-1 and on FAAH were 6.67 and 7.48, respectively.

As for `CSc1cccc(-c2cc(NC[C@H](O)c3ccccc3)ncn2)c1` [Example 84, (1R)-2-({6-[3-(Methylsulfanyl)phenyl]pyrimidin-4-yl}amino)-1-phenylethanol trifluoroacetic acid salt], the pIC50 against Rat FAAH-1 was 6.02; on FAAH, 7.36.

Regarding `OC(CNc1cc(-c2ccc(C(F)(F)F)c(Cl)c2)ncn1)c1cccc(SC(F)(F)F)c1` (stereo not shown) [Example 198, 2-({6-[3-chloro-4-(trifluoromethyl)phenyl]pyrimidin-4-yl}amino)-1-[3-[(trifluoromethyl)sulfanyl]phenyl]ethanol], the pIC50 against Rat FAAH-1 was 7.60; against FAAH, 7.04.

Take `CSc1nc(NC[C@H](O)c2ccccc2)cc(-c2ccc(C(F)(F)F)c(F)c2)n1` [Example 102, (1R)-2-({6-[3-Fluoro-4-(trifluoromethyl)phenyl]-2-(methylsulfanyl)pyrimidin-4-yl}amino)-1-phenylethanol trifluoroacetic acid salt]: the pIC50 at Rat FAAH-1 was 7.30; on FAAH it was 7.77.

For `CCOc1ccc(-c2cc(NC[C@H](O)c3ccccc3)ncn2)cc1C` [Example 31, (1R)-2-{[6-(4-Ethoxy-3-methylphenyl)pyrimidin-4-yl]amino}-1-Phenylethanol trifluoroacetic acid salt], the pIC50 against Rat FAAH-1 was 7.68; against FAAH, 8.52.

Turning to `OC(CNc1cc(-c2ccsc2)ncn1)c1ccccc1` (stereo not shown) [CE7, 1-Phenyl-2-(6-thiophen-3-yl-pyrimidin-4-ylamino)-ethanol, reference compound], the negative-log IC50 (pIC50) on Rat FAAH-1 (read-out: Assay 2 IC50, Table 2, Comparative Examples, rat FAAH-1) was below 5.00; at FAAH (read-out: Assay 1 IC50, Table 2, Comparative Examples, human FAAH), below 5.00.

For `COc1ccc(C(O)CNc2cc(-c3ccc(C(F)(F)F)c(Cl)c3)ncn2)cc1OC` (stereo not shown) [Example 202, 2-({6-[3-Chloro-4-(trifluoromethyl)phenyl]pyrimidin-4-yl}amino)-1-(3,4-dimethoxyphenyl)ethanol], the pIC50 against Rat FAAH-1 is 7.00; at FAAH it was 6.65.

On to `CC(C)COc1ccc(-c2cc(NC[C@H](O)c3ccccc3)ncn2)cc1` [Example 37, (1R)-2-({6-[4-(2-Methylpropoxy)phenyl]pyrimidin-4-yl}amino)-1-phenylethanol trifluoroacetic acid salt], for which the pIC50 at Rat FAAH-1 is 5.10; at FAAH it was 6.40.

For `CC(=O)c1ccc(-c2cc(NC[C@H](O)c3ccccc3)ncn2)cc1` [Example 17, 1-[4-(6-{[(2R)-2-Hydroxy-2-phenylethyl]amino}pyrimidin-4-yl)phenyl]ethanone], the pIC50 against Rat FAAH-1 is 8.00; on FAAH it was 7.92.

Take `Cc1cc(-c2cc(NC[C@H](O)c3ccccc3)ncn2)ccc1OC(C)C` [Example 46, (1R)-2-({6-[3-Methyl-4-(1-methylethoxy)phenyl]pyrimidin-4-yl}amino)-1-phenylethanol]: the pIC50 on Rat FAAH-1 is 7.59; against FAAH, 7.89.

As for `O=S(=O)(c1ccc(-c2cc(NC[C@H](O)c3ccccc3)ncn2)cc1)N1CCSCC1` [Example 172, (1R)-1-Phenyl-2-({6-[4-(thiomorpholin-4-ylsulfonyl)phenyl]pyrimidin-4-yl}amino)ethanol], the pIC50 on Rat FAAH-1 was 5.82; on FAAH, 5.10.

For `OC(CNc1cc(-c2ccc(C(F)(F)F)c(Cl)c2)ncn1)c1ccccc1F` (stereo not shown) [Example 212, 2-({6-[3-Chloro-4-(trifluoromethyl)phenyl]pyrimidin-4-yl}amino)-1-(2-fluorophenyl)ethanol], the pIC50 on Rat FAAH-1 is 7.41; on FAAH, 7.19.

On to `OC(CNc1cc(-c2c(F)cccc2F)ncn1)c1ccccc1` (stereo not shown) [Example 237, 2-[6-(2,6-Difluoro-phenyl)-pyrimidin-4-ylamino]-1-phenyl-ethanol], for which the pIC50 at Rat FAAH-1 and on FAAH was below 5.00 throughout.

In the case of `Cc1cc(-c2cc(NC[C@H](O)c3ccccc3)ncn2)ccc1Cl` [Example 26, (1R)-2-{[6-(4-Chloro-3-methylphenyl)pyrimidin-4-yl]amino}-1-phenylethanol trifluoroacetic acid salt], the pIC50 at Rat FAAH-1 was 6.79; against FAAH, 7.28.
